Experimental data reported in patent USRE47267E1, “Pyridinecarboxamides as CXCR2 modulators” (Syntrix Biosystems, Inc., priority 2009, dated 2019).

Legend:
[1] = Aqueous solubility; type: physicochemical
Description: (§1) The lipid based excipient Gelucire® 44/14 is a self-emulsifying drug delivery system (SEDDS) that is able to solubilize both SX-517 and SX-576 into aqueous solutions via micellular formation. […] Therefore, lipid-based emulsifiers are important excipients for the oral delivery of SX-576.

[2] = Crossover pharmacokinetic experiment in Beagle dogs; type: in vivo; conditions: for plasma level: dosed to Beagle dogs without excipient, data not shown
Experimental: In this study, male Beagle dogs (n=5) were dosed intravenously on study day 1 with SX-576 in dimethylformamide/PEG400/saline (40:40:20) at a dose level of 5 mg/kg and a dose volume of 0.5 mL/kg. Blood samples were taken predose, and at time points 30, 60, 90, 120, 180, 360, 540 and 720 minutes. The blood was collected in tubes containing K2EDTA as an anticoagulant, and the tubes were centrifuged and the plasma fractions collected and frozen. After a one-week washout period, the same Beagle dogs were dosed orally with SX-576 in lipid based excipient Gelucire® 44/14 (Gattefosse) at a dose level of 5 mg/kg. Blood samples were then taken and plasma fractions collected as previously described. Prior to analysis, the plasma samples were thawed and diluted 1:3 into acetonitrile containing 1 μM of compound 153 as an internal standard. The resulting samples were centrifuged and the supernatant analyzed by LC-MS monitoring in multiple reaction monitoring mode. The samples were run concomitantly with a calibration curve of SX-576 in the same internal standard solution.
as §1

[3] = biological target: T1, CXCR2 (Homo sapiens (Human), UniProt P25025); test: β-arrestin recruitment to CXCR2 (β-galactosidase fragment complementation, DiscoveRx); conditions: for inhibition of β-arrestin recruitment following CXCR2 activation with IL-8: FIG. 2; for activity on β-arrestin complexation with CXCR2 in the absence of IL8: FIG. 3
T1 sequence (P25025 whole entry, the tested form may be a part): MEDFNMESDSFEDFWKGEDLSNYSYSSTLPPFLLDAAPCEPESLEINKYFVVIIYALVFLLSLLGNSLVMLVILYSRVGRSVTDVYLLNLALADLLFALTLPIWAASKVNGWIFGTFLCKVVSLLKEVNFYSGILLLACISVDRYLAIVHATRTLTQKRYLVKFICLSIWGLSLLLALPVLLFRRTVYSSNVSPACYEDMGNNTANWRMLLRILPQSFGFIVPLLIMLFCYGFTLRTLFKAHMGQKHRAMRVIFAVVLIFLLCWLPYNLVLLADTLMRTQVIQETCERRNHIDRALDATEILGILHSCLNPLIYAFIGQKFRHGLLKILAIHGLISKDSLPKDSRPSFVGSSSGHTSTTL

[4] = system: neutrophil influx; test: Murine air pouch model of neutrophil chemotaxis (p.o.); type: in vivo, male CD-1 mice; conditions: for total neutrophil counts in the blood: high doses, compared to control animals, data not shown
Experimental: Compounds 1 (SX-517) and 2 (SX-576) were also assayed in an in vivo air-pouch model of inflammation. SX-517 and SX-576 were able to attenuate neutrophil influx in the air-pouch model by about 50% at an oral dose of 0.2 and 0.05 mg/kg, respectively. […] More specifically, the procedure was performed by forming an air pouch on the backs of male CD-1 mice via the subcutaneous injection of air (2 mL). The next day, an additional subcutaneous injection of air (1.5 mL) was performed to reinflate the air pouch. The mice were given either vehicle control (Labrasol®) or test compound solubilized in Labrasol® via oral gavage. After 3 hours, either sterile phosphate buffered saline (PBS, 1 ml) or 2% carrageenan in sterile PBS (1 mL) was injected into the air pouch. After 4 hours, the mice were sedated with ketamine, and sacrificed by cervical dislocation. The exudate in the air pouch was collected by syringe, with an additional 2 mL wash with sterile PBS. The neutrophils were stained with trypan blue and counted on a hemocytometer under 20× magnification.

[5] = biological target: T1, CXCR2; test: In vitro agonist activity: intracellular calcium release in human neutrophils in the absence of GROα; type: cell-based
[6] = system: neutrophil influx; test: Murine air pouch model of neutrophil chemotaxis (i.v.); type: in vivo, male CD-1 mice; conditions: all tested dose levels 0.02, 0.05, 0.2 and 1.0 mg/kg, FIG. 6
Experimental: The procedure was performed by forming an air pouch on the backs of male CD-1 mice via the subcutaneous injection of air (2 mL). The next day, an additional subcutaneous injection of air (1.5 mL) was performed to reinflate the air pouch. The mice were given either vehicle control (dimethylformamide/PEG400/saline) or test compound solubilized in vehicle via tail vein injection. After 30 minutes, either sterile phosphate buffered saline (PBS, 1 ml) or 2% carrageenan in sterile PBS (1 mL) was injected into the air pouch. After 4 hours, the mice were sedated with ketamine, and sacrificed by cervical dislocation. The exudate in the air pouch was collected by syringe, with an additional 2 mL wash with sterile PBS. The neutrophils were stained with trypan blue and counted on a hemocytometer under 20× magnification.

[7] = biological target: T1, CXCR2; test: Wash-resistant inhibition of GROα-mediated intracellular calcium release in isolated human neutrophils; type: cell-based; conditions: 0.4, 2 and 10 μM, 30 min incubation, washed; time points out to 6 hours; FIG. 1
[8] = system: ozone-induced pulmonary inflammation; test: Ozone rat model of pulmonary inflammation; type: in vivo, Sprague-Dawley rats; conditions: 1 mg/kg i.v. at t=0, 5, 9 h, 1 ppm ozone 4 h
Experimental: Activity in this model of pulmonary inflammation would provide direct relevance towards the treatment of a number of pulmonary inflammatory diseases, including chronic obstructive pulmonary disease (COPD) and bronchopulmonary dysplasia (BPD). In this experiment, Sprague-Dawley rats (n=4 per cohort) were dosed intravenously at t=0 with either vehicle (negative and positive groups, dimethylformamide/PEG400/saline, 40:40:20) or SX-576 (1 mg/kg). The rats were then placed in air (negative group) or 1 ppm ozone (positive and SX-576 groups) for 4 hours. The rats were dosed again at t=5 and 9 hours. The rats were then sacrificed at t=24 hours, and the bronchoalveolar lavage fluid (BALF) was collected. The cells were spun down, stained with Wright-Giemsa and counted. In the negative groups, no neutrophils were observed when stained. As a measure of lung leakage/damage, protein levels were quantified in BALF by Bradford protein assay analysis.

[9] = biological target: T1, CXCR2; test: Inhibition of GROα-mediated intracellular calcium release in human neutrophils (FLIPR-3 Ca2+ mobilization assay); type: cell-based; conditions: GROα 25 nM

aqueous solubility [1]	plasma level [2]	inhibition of β-arrestin recruitment following CXCR2 activation with IL-8 [3]	activity on β-arrestin complexation with CXCR2 in the absence of IL8 [3]	total neutrophil counts in the blood [4]	IC50 [9] [nM]	SMILES	further results
poor	undetected	inhibited arrestin recruitment	acted as inverse agonists	not significantly changed	–	O=C(Nc1ccc(F)cc1)c1ccc(SCc2ccccc2B(O)O)nc1 [Compound 1, 6-(2-borono-2-yl-benzylsulfanyl)-N-(4-fluoro-phenyl)-nicotinamide]	neutrophil influx ([4]; 0.005 and 0.2 p.o., FIG. 4): decrease of neutrophil influx; neutrophil influx ([4]; doses in excess of 10 mg/kg p.o., FIG. 4): increase in neutrophil influx; agonist activity with respect to the release of intracellular calcium ([5]; listed as 1 (SX-517)): did not show agonist activity; agonist activity with respect to the release of intracellular calcium ([5]; listed as SX-517): did not exhibit any agonist activity
poor	undetected	inhibited arrestin recruitment	acted as inverse agonists	not significantly changed	–	O=C(Nc1ccc(F)cc1)c1ccc(SCc2cc(OC(F)(F)F)ccc2B(O)O)nc1 [Compound 2, 6-(2-boronic acid-5-trifluoromethoxy-benzylsulfanyl)-N-(4-fluoro-phenyl)-nicotinamide]	neutrophil influx [6]: significantly attenuate neutrophil influx; bioavailability following oral administration ([2]; Beagle dogs, 5 mg/kg oral in Gelucire 44/14): improved; neutrophil influx ([4]; 0.05 mg/kg p.o., FIG. 5): decrease of neutrophil influx; neutrophil influx ([4]; doses in excess of 1 mg/kg p.o., FIG. 5): increase in neutrophil influx; inhibition of GROα mediated intracellular calcium release after inhibitor washout [7]: dose-dependent and wash-resistant inhibition; influx of neutrophils into the lungs ([8]; BALF at 24 h, FIG. 7a): significantly decreased; influx of macrophages into the lungs ([8]; BALF at 24 h, FIG. 7b): significantly decreased; ozone-induced lung damage (protein levels in the BALF) ([8]; FIG. 7c): protected against ozone-induced lung damage
–	–	–	–	–	> 5000	O=C(Nc1ccc(F)cc1)c1ccc(SC2CCOC2=O)nc1 (stereo not shown) [Compound 81]	–
–	–	–	–	–	79	COc1ccc(B(O)O)c(CSc2ccc(C(=O)Nc3ccc(F)cc3)cn2)c1 [Compound 4, 6-(2-boronic acid-5-methoxy-benzylsulfanyl)-N-(4-fluoro-phenyl)-nicotinamide]	–
–	–	–	–	–	> 5000	Cc1nn(-c2ccccc2)nc1CSc1ccc(C(=O)Nc2ccc(F)cc2)cn1 [Compound 48]	–
